According to patent US10253355B2, “Instrument and system for rapid microorganism identification and antimicrobial agent susceptibility testing” (Accelerate Diagnostics, Inc., priority 2015, dated 2019):
Like-named read-outs stand apart in the source and are kept apart here.

How the values were obtained:
[1] = system: Enterococcus faecalis ATCC 29212; assay: AST QC assay on AD-1 instrument, QC isolate E. faecalis ATCC 29212; format: cell-based; settings: unit assumed
From the text: (§1) The reportable range for the AST QC assay in some examples are adjusted such that the selected QC isolates have an MIC that is within the reportable range of the QC Assay. These extended ranges are only applied to QC testing and are not applied to AST assessment of patient samples. The process for assigning an MIC value to the QC organisms is the same or similar to that used for patient samples. […] This approach allows testing of, for example, CLSI recommended QC isolates without affecting the algorithms that are optimized around antimicrobial breakpoints. The algorithms used in ID QC or AST QC testing include those described above, for example, when the QC test samples are microbial isolates. For ID QC testing utilizing target microbial nucleic acids coupled to a bead, positive detection is achieved by comparing the cumulative count in the target (e.g., Green fluorescence channel) only against a threshold of objects that have brightness exceeding bead autofluorescence. Negative control detection is achieved by doing the same for eubacteria (e.g., Red fluorescence) channel only. For example, the number of bright red objects should not exceed a threshold in order to pass negative control.
(§2) The results of the identification assay drive antibiotic selection for antimicrobial susceptibility testing. The remaining samples undergo a pre-growth step to normalize growth rates during the approximately 1-hour FISH ID assay. The concentration of organisms in the purified inoculum was determined by repeating the quantitation process with a universal nucleic acid stain as previously described herein. […] Following cell immobilization, antimicrobial solutions in Mueller-Hinton agar were dispensed into the flowcells. Different antimicrobials were tested in separate flowcells, and only a single concentration of each antimicrobial was used. A growth control consisting of Mueller-Hinton agar without any antimicrobial was included for each run. A dark-field microscope and camera produced time-lapse images approximately every 10 minutes of progenitor cells growing into clones of daughter cells in each flowcell. The agar ensured daughter cells were immobilized and remained localized to each growing clone. Resistant clones grew while susceptible clones arrest or lyse over time (FIG. 90).
(§3) Custom image analysis software assigned unique spatial XY coordinates to individual progenitor cells (FIG. 91), allowing each growing clone across a series of time-lapse images to be identified. The intensity of each clone can be used as a metric of clone mass in each image. By measuring over time, this metric was used to generate growth curves for each individual clone (FIG. 92). The pattern of cell responses was used to determine the susceptibility of the overall population. Computer algorithms developed for each organism-antimicrobial combination convert microbial growth response into an MIC value using a mathematical regression model based on the response of isolates with known MICs for a single-concentration of a given antimicrobial. Once obtained, MIC values were interpreted using FDA, CLSI or EUCAST breakpoints along with expert rules to determine the categorical result (susceptible (S), intermediate (I) or resistant (R)). In addition to MICs, this technique was applied to phenotypic resistance mechanism detection.
(§4) In this example, the AST QC consumable insert consisted of 8 wells configured in a “pi” shape, as shown in the dark gray shading in FIG. 109. The AST QC panel was composed of seven CLSI recommended isolates that provide “on-scale” MIC results for all of the antimicrobial agents included in a sample blood culture test. A C. albicans isolate was used for Quality Control assessment of the […] component of the AD-1 Instrument System.
(§5) Table 9 below lists each organism and the corresponding antimicrobial agent that was tested in the AST QC assay. […]

[2] = system: Pseudomonas aeruginosa ATCC 27853; assay: AST QC assay on AD-1 instrument, QC isolate P. aeruginosa ATCC 27853; format: cell-based
From the text: as §1, §2, §3, §4, §5

[3] = system: Pseudomonas aeruginosa ATCC 27853; settings: cited from earlier work; for Organism QC Range (MIC): AST QC panel (Table 9), CLSI recommended isolate P. aeruginosa ATCC 27853; for Expected (MIC acceptance range): P. aeruginosa ATCC 27853
[4] = system: Enterococcus faecalis ATCC 29212; settings: in µg/mL (unit assumed), cited from earlier work; for Organism QC Range (MIC): AST QC panel (Table 9), CLSI recommended isolate E. faecalis ATCC 29212; for Expected (MIC acceptance range): E. faecalis ATCC 29212
[5] = system: Escherichia coli ATCC 25922; assay: AST QC assay on AD-1 instrument, QC isolate E. coli ATCC 25922; format: cell-based; settings: unit assumed
From the text: as §1, §2, §3, §4, §5

[6] = AST only report (Table 10), in µg/mL (unit assumed)
[7] = ID and AST report (Table 11), in µg/mL (unit assumed)

Compound | Result (MIC value) ([1]; AST only report (Table 10)) [µg/mL] | Result (MIC value) ([1]; ID and AST report (Table 11)) [µg/mL] | Result (MIC value) ([2]; AST only report (Table 10)) [µg/mL] | Result (MIC value) ([2]; ID and AST report (Table 11)) [µg/mL] | Organism QC Range (MIC) ([3]; in µg/mL (unit assumed)) | Expected (MIC acceptance range) [3, 6] | Expected (MIC acceptance range) [3, 7] | other results
C[C@H]1c2cccc(O)c2C(=O)C2=C(O)[C@]3(O)C(=O)C(C(N)=O)=C(O)[C@@H](N(C)C)[C@@H]3[C@@H](O)[C@@H]21 [Doxycycline] | 4 | 4 |  |  |  |  |  | 
C[C@@H](O)[C@H]1C(=O)N2C(C(=O)O)=C(S[C@@H]3CN[C@H](C(=O)Nc4cccc(C(=O)O)c4)C3)[C@H](C)[C@H]12 [Ertapenem] |  |  | 4 | 4 | 2-8 | 2-8 | 2-8 | 
CC(=O)NC[C@H]1CN(c2ccc(N3CCOCC3)c(F)c2)C(=O)O1 [Linezolid] | 2 | 2 |  |  |  |  |  | Organism QC Range (MIC) [4]: 1-4; Expected (MIC acceptance range) ([4]; AST only report (Table 10)): 1-4; Expected (MIC acceptance range) ([4]; ID and AST report (Table 11)): 1-4
C[C@@H](O)[C@H]1C(=O)N2C(C(=O)O)=C(S[C@@H]3CN[C@H](C(=O)N(C)C)C3)[C@H](C)[C@H]12 [Meropenem] |  |  | 0.5 | 0.5 | 0.25-1 | 0.25-1 | 0.25-1 | 
CN(C)c1ccc(O)c2c1C[C@H]1C[C@H]3[C@H](N(C)C)C(O)=C(C(N)=O)C(=O)[C@@]3(O)C(O)=C1C2=O [Minocycline] |  |  |  |  |  |  |  | Result (MIC value) ([5]; AST only report (Table 10)): 0.5 µg/mL; Result (MIC value) ([5]; ID and AST report (Table 11)): 0.5 µg/mL
NC[C@H]1O[C@H](O[C@H]2[C@H](O)[C@@H](O[C@H]3O[C@H](CO)[C@@H](O)[C@H](N)[C@H]3O)[C@H](N)C[C@@H]2N)[C@H](N)C[C@@H]1O [Tobramycin] |  |  | 0.5 | 0.5 | 0.25-1 | 0.25-1 | 0.25-1 | 
CN[C@H](CC(C)C)C(=O)N[C@H]1C(=O)N[C@@H](CC(N)=O)C(=O)N[C@H]2C(=O)N[C@H]3C(=O)N[C@H](C(=O)N[C@H](C(=O)O)c4cc(O)cc(O)c4-c4cc3ccc4O)[C@H](O)c3ccc(c(Cl)c3)Oc3cc2cc(c3O[C@@H]2O[C@H](CO)[C@@H](O)[C@H](O)[C@H]2O[C@H]2C[C@](C)(N)[C@H](O)[C@H](C)O2)Oc2ccc(cc2Cl)[C@H]1O [Vancomycin] | 2 | 2 |  |  |  |  |  | Organism QC Range (MIC) [4]: 0.5-2; Expected (MIC acceptance range) ([4]; AST only report (Table 10)): 1-4; Expected (MIC acceptance range) ([4]; ID and AST report (Table 11)): 1-4
Colistin |  |  | 2 | 2 | 0.5-4 |  |  | Expected (MIC acceptance range) ([3]; AST only report (Table 10)): 0.5-4^; Expected (MIC acceptance range) ([3]; ID and AST report (Table 11)): 0.5-4^
Gentamicin |  |  | 1 | 1 | 0.5-2 |  |  | Expected (MIC acceptance range) ([3]; AST only report (Table 10)): 0.5-2^; Expected (MIC acceptance range) ([3]; ID and AST report (Table 11)): 0.5-2^
